# System: S. mutans
# Type: cell-based
# Method: Chitosan is a known antimicrobial. The antimicrobial activities of chitosans were determined with XTT assay based on the measurement of bacterial metabolic activities. The bacteria include S. sanguis, S. fecalis, and S. mutans. […] The metabolic activity and viability of S. mutans was decreased with the increase of the molecular weight of chitosan from 1K to 10K, as shown in FIG. 3. […] The relative viability of S. mutans treated with chitosan 10K was only about 10% as compared to the control. […] The chitosan with molecular weight of 10K reached the greatest inhibition effect against S. mutans in our XTT assay.
# The antimicrobial activity of chitosan 10K was tested on three different oral bacteria which are major bacteria responsible for the occurrence of dental caries. […] The antimicrobial effects are concentration dependent and increased with increased chitosan concentration.
row,Substance,relative viability of S. mutans as compared to the control
1,chitosan [chitosan 5K],55%
2,chitosan [chitosan 10K],about 10%

# Source: patent US10470993B2, “Tooth remineralization compositions and methods” (priority 2013, dated 2019)
